Active and inactive are the calls of the source. Numbered stars: 1 amine (or outer) side, 2 acyl side, 3 side chain; on linkers, the order of the positions; unused ones are H or OH. Square brackets hold non-standard residues; d marks the D form. Peptide text beside a SMILES is read from it. * marks the point of attachment. X26 = O=C(O)c1cc(NC(=S)c2ccc(S(=O)(=O)*)cc2)ccc1-c1c2ccc(=O)cc-2oc2cc(O)ccc12; X12 = NC(=O)CN(C[C@H](Cc1ccccc1)N*)S(=O)(=O)c1ccc([N+](=O)[O-])cc1; X11 = CC(C)C[C@@H](CN(CC(N)=O)S(=O)(=O)c1ccc([N+](=O)[O-])cc1)N*; X23 = NC(=O)CN(C[C@H](Cc1ccccc1)N*)S(=O)(=O)c1ccc(F)cc1; X24 = Cc1ccc(S(=O)(=O)N(CC(N)=O)C[C@H](Cc2ccccc2)N*)cc1; X27 = Cc1ccc(S(=O)(=O)N(CC(N)=O)C[C@H](CC(C)C)N*)cc1; Benzenesulfonyl(4-F) = O=S(=O)(c1ccc(F)cc1)*; X5 = CC(C)c1cc(C(C)C)c(S(=O)(=O)*)c(C(C)C)c1; X3 = N[C@@H](Cc1ccccc1)CN(CC(=O)[*:2])[*:1]; X2 = CC(C)C[C@H](N)CN(CC(=O)[*:2])[*:1]; Tos = Cc1ccc(S(=O)(=O)*)cc1

Data on 16 compounds can be found in ChEMBL document CHEMBL5380773, “Novel Feleucin-K3-Derived Peptides Modified with Sulfono-γ-AA Building Blocks Targeting Pseudomonas aeruginosa and Methicillin-Resistant Staphylococcus aureus Infections” (J Med Chem, 2023).

Series [1] is described as follows: Stability in mouse serum assessed as half life incubated for 6 hrs by HPLC analysis. The format is ADME, cell-free.
The next series relates to Erythrocyte. The experiment in a line: Hemolytic activity against mouse red blood cells incubated for 1 hr. The format is toxicity, cell-based.
For series [2], the system named is Pseudomonas aeruginosa. The experiment in a line: Induction of resistant development in Pseudomonas aeruginosa ATCC 27853 assessed as fold increase in MIC after 20 days. The format is functional. The note with it: time 20 day.
The test system of series [3] is Staphylococcus aureus. The series is described as follows: Induction of resistant development in Staphylococcus aureus ATCC 25923 assessed as fold increase by serial passage assay. The format is functional.
Series [4] has as its system Staphylococcus aureus. The series is described as follows: Induction of resistant development in methicillin resistant Staphylococcus aureus ATCC 33591 assessed as fold increase by serial passage assay. The format is functional.
Series [5] relates to Staphylococcus aureus. The series is described as follows: Antimicrobial activity against methicillin resistant Staphylococcus aureus ATCC 33591 infected in BALB/c mouse assessed as reduction in sessile bacteria attached on catheters surface at 0.25 to 1 mg/kg infected with bacteria for 2 hrs prior to compound addition on 1, 24 and 48 hrs and measured after 72 hrs […]. The format is functional, organism-based. The note with it: dose 0.25-1 mg/kg.

The next series deals with Cell membrane. The series is described as follows: Induction of membrane disruption in Pseudomonas aeruginosa ATCC 27853 after 30 mins by confocal laser scanning microscopic analysis. The format is subcellular.
Series [6] has as its system Pseudomonas aeruginosa. The experiment in a line: Antimicrobial activity against multidrug resistant Pseudomonas aeruginosa ATCC 27853 assessed as fold increase incubated for 18 hrs by microdilution method. The format is functional.

A word on the half-life: it is the time needed for the level to fall by half in the phase considered. For the compound H-FLKLLKKLL-NH2, the half-life in series [1] is 1.28 h. The compound also had an MHC in the series on Erythrocyte of 256 µg/mL. Turning to `CC(C)(O/N=C(\C(=O)N[C@@H]1C(=O)N2C(C(=O)[O-])=C(C[n+]3ccccc3)CS[C@H]12)c1csc(N)n1)C(=O)O` [CEFTAZIDIME], the “fold change (FC)” value in the series with Pseudomonas aeruginosa [2] came to 256. Regarding `CC1(C)S[C@@H]2[C@H](NC(=O)[C@H](N)c3ccc(O)cc3)C(=O)N2[C@H]1C(=O)O` [AMOXICILLIN], the “fold change (FC)” value in the series with Staphylococcus aureus [3] and in the series on Staphylococcus aureus [4] was 4096 throughout. `CN[C@H](CC(C)C)C(=O)N[C@H]1C(=O)N[C@@H](CC(N)=O)C(=O)N[C@H]2C(=O)N[C@H]3C(=O)N[C@H](C(=O)N[C@H](C(=O)O)c4cc(O)cc(O)c4-c4cc3ccc4O)[C@H](O)c3ccc(c(Cl)c3)Oc3cc2cc(c3O[C@@H]2O[C@H](CO)[C@@H](O)[C@H](O)[C@H]2O[C@H]2C[C@](C)(N)[C@H](O)[C@H](C)O2)Oc2ccc(cc2Cl)[C@H]1O`: the result in the series with Staphylococcus aureus [5] was Active. As to `CC(C)C[C@H](N)CN(CC(=O)N[C@@H](CCCCN)C(=O)N[C@@H](CC(C)C)C(=O)N[C@@H](CC(C)C)C(=O)N[C@@H](CCCCN)C(=O)N[C@@H](CCCCN)C(=O)N[C@@H](CC(C)C)C(=O)N[C@@H](CC(C)C)C(N)=O)S(=O)(=O)c1ccc(C(=S)Nc2ccc(-c3c4ccc(=O)cc-4oc4cc(O)ccc34)c(C(=O)O)c2)cc1` (X26-[X2]KLLKKLL-NH2), the result with Cell membrane was Active. On to `C[C@@H](O)[C@H]1C(=O)N2C(C(=O)O)=C(SCCNC=N)C[C@H]12` [IMIPENEM ANHYDROUS], for which the “fold change (FC)” value in the series with Pseudomonas aeruginosa [6] worked out at 1; in the series on Pseudomonas aeruginosa [2] it was 16. Take `C[C@H]1[C@H](NC(=O)/C(=N\OC(C)(C)C(=O)O)c2csc(N)n2)C(=O)N1S(=O)(=O)O` [AZTREONAM]: the “fold change (FC)” value is given as 2 with Pseudomonas aeruginosa [6] and 32 in the series on Pseudomonas aeruginosa [2]. As to `CC(C)C[C@H](N)CN(CC(=O)N[C@@H](CCCCN)C(=O)N[C@@H](CC(C)C)C(=O)N[C@@H](CC(C)C)C(=O)N[C@@H](CCCCN)C(=O)N[C@@H](CCCCN)C(=O)N[C@@H](CC(C)C)C(=O)N[C@@H](CC(C)C)C(N)=O)S(=O)(=O)c1ccc(F)cc1` ({Benzenesulfonyl(4-F)}-[X2]KLLKKLL-NH2), the MHC in the series on Erythrocyte is 256 µg/mL.

Turning to `Cc1ccc(S(=O)(=O)N(CC(=O)N[C@@H](CCCCN)C(=O)N[C@@H](CC(C)C)C(=O)N[C@@H](CC(C)C)C(=O)N[C@@H](CCCCN)C(=O)N[C@@H](CCCCN)C(=O)N[C@@H](CC(C)C)C(=O)N[C@@H](CC(C)C)C(N)=O)C[C@@H](N)Cc2ccccc2)cc1` (Tos-[X3]KLLKKLL-NH2), in series [1], the half-life was 6.97 h. The MHC in the series with Erythrocyte turned out to be 256 µg/mL. `CC(C)C[C@H](NC(=O)[C@H](CC(C)C)NC(=O)[C@H](CCCCN)NC(=O)[C@H](CCCCN)NC(=O)[C@H](CC(C)C)NC(=O)[C@H](CC(C)C)NC(=O)[C@H](CCCCN)NC(=O)CN(C[C@@H](N)Cc1ccccc1)S(=O)(=O)c1c(C(C)C)cc(C(C)C)cc1C(C)C)C(N)=O` (X5-[X3]KLLKKLL-NH2): the MHC with Erythrocyte was found to be 16 µg/mL. For `CC(C)C[C@@H](CN(CC(N)=O)S(=O)(=O)c1ccc([N+](=O)[O-])cc1)NC(=O)[C@H](CCCCN)NC(=O)[C@H](CCCCN)NC(=O)[C@H](CC(C)C)NC(=O)[C@H](CC(C)C)NC(=O)[C@H](CCCCN)NC(=O)[C@H](CC(C)C)NC(=O)[C@@H](N)Cc1ccccc1` (H-FLKLLKK-X11), the MHC with Erythrocyte is 256 µg/mL. The same measure, in the same setting: to `CC(C)C[C@H](NC(=O)[C@H](CC(C)C)NC(=O)[C@H](CCCCN)NC(=O)[C@H](CC(C)C)NC(=O)[C@@H](N)Cc1ccccc1)C(=O)N[C@@H](CCCCN)C(=O)N[C@@H](CCCCN)C(=O)N[C@@H](Cc1ccccc1)CN(CC(N)=O)S(=O)(=O)c1ccc([N+](=O)[O-])cc1` (H-FLKLLKK-X12) belongs 256 µg/mL. On the same count and under the same terms, in the case of `Cc1ccc(S(=O)(=O)N(CC(N)=O)C[C@H](Cc2ccccc2)NC(=O)[C@H](CCCCN)NC(=O)[C@H](CCCCN)NC(=O)[C@H](CC(C)C)NC(=O)[C@H](CC(C)C)NC(=O)[C@H](CCCCN)NC(=O)[C@H](CC(C)C)NC(=O)[C@@H](N)Cc2ccccc2)cc1` (H-FLKLLKK-X24) it was 256 µg/mL. On the same count and under the same terms, in the case of `CC(C)C[C@H](NC(=O)[C@H](CC(C)C)NC(=O)[C@H](CCCCN)NC(=O)[C@H](CC(C)C)NC(=O)[C@@H](N)Cc1ccccc1)C(=O)N[C@@H](CCCCN)C(=O)N[C@@H](CCCCN)C(=O)N[C@@H](Cc1ccccc1)CN(CC(N)=O)S(=O)(=O)c1ccc(F)cc1` (H-FLKLLKK-X23) it was 256 µg/mL; in that of `Cc1ccc(S(=O)(=O)N(CC(=O)N[C@@H](CCCCN)C(=O)N[C@@H](CC(C)C)C(=O)N[C@@H](CC(C)C)C(=O)N[C@@H](CCCCN)C(=O)N[C@@H](CCCCN)C(=O)N[C@@H](CC(C)C)C(=O)N[C@@H](CC(C)C)C(N)=O)C[C@@H](N)CC(C)C)cc1` (Tos-[X2]KLLKKLL-NH2), 32 µg/mL; in that of `Cc1ccc(S(=O)(=O)N(CC(N)=O)C[C@H](CC(C)C)NC(=O)[C@H](CCCCN)NC(=O)[C@H](CCCCN)NC(=O)[C@H](CC(C)C)NC(=O)[C@H](CC(C)C)NC(=O)[C@H](CCCCN)NC(=O)[C@H](CC(C)C)NC(=O)[C@@H](N)Cc2ccccc2)cc1` (H-FLKLLKK-X27), 256 µg/mL.
